Data published in article PMC4419590 (ChemMedChem, 2014).

Key:
HIV-1MDR/B(X4) = experiment: microbe, parasite or virus in culture; format: cell-based; conditions: for fold change of EC50 compared to wild-type HIV-1ERS104pre: number in parentheses
HIV-1MDR/C(X4) = experiment: microbe, parasite or virus in culture; format: cell-based; conditions: for fold change of EC50 compared to wild-type HIV-1ERS104pre: number in parentheses
HIV-1MDR/G(X4) = experiment: microbe, parasite or virus in culture; format: cell-based; conditions: for fold change of EC50 compared to wild-type HIV-1ERS104pre: number in parentheses
HIV-1MDR/TM(X4) = experiment: microbe, parasite or virus in culture; format: cell-based; conditions: for fold change of EC50 compared to wild-type HIV-1ERS104pre: number in parentheses
HIV-1MDR/MM(R5) = experiment: microbe, parasite or virus in culture; format: cell-based; conditions: for fold change of EC50 compared to wild-type HIV-1ERS104pre: number in parentheses
HIV-1MDR/JSL(R5) = experiment: microbe, parasite or virus in culture; format: cell-based; conditions: for fold change of EC50 compared to wild-type HIV-1ERS104pre: number in parentheses
[1] = test system: panel of six multidrug resistant clinical HIV-1 variants; experiment: microbe, parasite or virus in culture; format: cell-based; conditions: Human immunodeficiency virus 1, read-out: EC50 range across the panel
HIV-1LAI = experiment: Antiviral activity in MT-2 cells exposed to HIV-1LAI, MTT assay; format: cell-based
[2] = test system: HIV-1ERS104pre (wild-type X4); experiment: Antiviral activity in PHA-PBMs, p24 Gag production, wild-type clinical isolate; format: cell-based
[3] = In vitro blood-brain-barrier model, triple co-culture drug transport assay; conditions: rat, monkey
[4] = test system: MT-2 human T-lymphoid cells
[5] = test system: in vitro BBB model (rat astrocytes, pericytes and monkey endothelial cells)
[6] = Human immunodeficiency virus 1, T-lymphoid, in Homo sapiens
[7] = PHA-PBMs, p24 Gag production, mean ± 1 SD

Row | SMILES | fold change of EC50 compared to wild-type HIV-1ERS104pre (HIV-1MDR/B(X4)) | EC50 (HIV-1MDR/C(X4); Human immunodeficiency virus 1) [nM] | fold change of EC50 compared to wild-type HIV-1ERS104pre (HIV-1MDR/C(X4)) | EC50 (HIV-1MDR/G(X4); Human immunodeficiency virus 1) [nM] | fold change of EC50 compared to wild-type HIV-1ERS104pre (HIV-1MDR/G(X4)) | fold change of EC50 compared to wild-type HIV-1ERS104pre (HIV-1MDR/TM(X4)) | EC50 (HIV-1MDR/MM(R5); Human immunodeficiency virus 1) [nM] | fold change of EC50 compared to wild-type HIV-1ERS104pre (HIV-1MDR/MM(R5)) | EC50 (HIV-1MDR/JSL(R5); Human immunodeficiency virus 1) [nM] | fold change of EC50 compared to wild-type HIV-1ERS104pre (HIV-1MDR/JSL(R5)) | EC50 (HIV-1LAI; [6]) [nM] | EC50 [2, 7] [nM] | EC50 (HIV-1MDR/B(X4); [7]) [nM] | EC50 (HIV-1MDR/C(X4); [7]) [nM] | EC50 (HIV-1MDR/G(X4); [7]) [nM] | EC50 (HIV-1MDR/TM(X4); [7]) [nM] | EC50 (HIV-1MDR/MM(R5); [7]) [nM] | CC50 [4] [nM] | Papp (apparent permeability coefficient) [5] | further results
1 | CC(C)CN(C[C@@H](O)[C@H](Cc1ccccc1)NC(=O)O[C@H]1CCOC1)S(=O)(=O)c1ccc(N)cc1 [APV, amprenavir, reference compound] | 15 | 210 ± 20 | 7 | 310 ± 80 | 11 | 12 | 630 ± 9 | 22 | 270 ± 10 | 9 |  |  |  |  |  |  |  |  |  | EC50 (HIV-1MDR/B(X4); Human immunodeficiency virus 1): 490 ± 50 nM; EC50 [1]: 210 to 630 nM
2 | CC(C)CN(C[C@@H](O)[C@H](Cc1ccccc1)NC(=O)O[C@H]1CO[C@H]2OCC[C@H]21)S(=O)(=O)c1ccc(N)cc1 [Darunavir, darunavir, reference compound] |  | 5 ± 1 |  | 14 ± 9 |  |  | 25 ± 2 |  | 10 ± 1 |  | 5 |  |  |  |  |  |  |  |  | EC50 ([2]; Human immunodeficiency virus 1): 4 ± 1 nM; EC50 (HIV-1MDR/TM(X4); Human immunodeficiency virus 1): 30 ± 10 nM; Papp at 30 min, 100 μM [3]: 9.32 ± 2.25 ×10⁻⁶ cm/s
3 | COc1ccc(S(=O)(=O)N(CC(C)C)C[C@@H](O)[C@H](Cc2ccccc2)NC(=O)OC2CO[C@H]3OCC(F)(F)[C@@H]23)cc1 (stereo partly drawn) [Inhibitor 3] | 7 |  | 1 |  | 2 | 2 |  | 10 |  | 1 |  | 2.3 ± 0.1 | 14 ± 1 | 2 ± 1 | 4 ± 1 | 4 ± 1 | 21 ± 4 | 17500 | 50.38 ± 10.61 10^−6 cm/s | EC50 (HIV-1MDR/JSL(R5); [7]): 2 ± 1 nM
4 | CC(C)CN(C[C@@H](O)[C@H](Cc1ccccc1)NC(=O)O[C@H]1CO[C@H]2OCC(F)(F)[C@H]21)S(=O)(=O)c1ccc(N)cc1 [Inhibitor 4] | 3 |  | 1 |  | 1 | 2 |  | 7 |  | 1 |  | 2.7 ± 0.3 | 11 ± 1 | 2 ± 1 | 4 ± 1 | 4 ± 1 | 20 ± 0.2 | 37000 | 60.84 ± 3.97 10^−6 cm/s | EC50 (HIV-1LAI; MT-2 human T-lymphoid cells exposed to HIVLAI): 3 nM
5 | CC(C)(C)NC(=O)[C@@H]1C[C@@H]2CCCC[C@@H]2CN1C[C@@H](O)[C@H](Cc1ccccc1)NC(=O)[C@H](CC(N)=O)NC(=O)c1ccc2ccccc2n1 [saquinavir] |  |  |  |  |  |  |  |  |  |  | 21 |  |  |  |  |  |  |  |  | 
